Data from ChEMBL document CHEMBL1201862, “PubChem BioAssay data set” (2004).
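Briefly, cells in 96-well plates were exposed to five compound concentrations for 48 h, and endpoints were estimated by linear interpolation. Abbreviation: GI50, concentration required for 50% inhibition of growth.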 Activity calls are given as the source filed them. No stated cut-off is given here; in the data, active = GI50 up to about 1.1 µM and inactive = higher.

What was measured:
Assay in all cases: NCI anticancer screen, dose series, 48 h
[1] = system: ACHN
[2] = system: K562
[3] = system: KM12
[4] = system: LOX IMVI
[5] = system: MDA-N
[6] = system: MOLT-4
[7] = system: Malme-3M
[8] = system: NCI-H23
[9] = system: NCI-H522
[10] = system: OVCAR-3
[11] = system: OVCAR-5
[12] = system: OVCAR-8
[13] = system: SF-268
[14] = system: SF-539
[15] = system: SK-MEL-28
[16] = system: SK-MEL-2
[17] = system: SK-MEL-5
[18] = system: SNB-19
[19] = system: SNB-75
[20] = system: SW-620

Measured: GI50

COc1ccc(C2C(=O)c3ccc(OC)cc3OC2c2cccnc2)cc1 (stereo not given)
inactive: [1] > 100 µM | [2] > 100 µM | [3] > 100 µM | [4] > 100 µM | [5] > 100 µM | [6] > 100 µM | [7] > 100 µM | [8] > 100 µM | [9] > 100 µM | [10] > 100 µM | [11] > 100 µM | [12] 56 µM | [13] 49.8 µM | [14] > 100 µM | [15] > 100 µM | [16] > 100 µM | [17] > 100 µM | [18] 92.7 µM | [19] 34.8 µM | [20] > 100 µM

O=C(O)c1cnc2c(ccc3ncc(C(=O)O)c(O)c32)c1O
inactive: [1] > 100 µM | [2] > 100 µM | [3] > 100 µM | [4] > 100 µM | [5] > 100 µM | [6] > 100 µM | [7] > 100 µM | [8] > 100 µM | [9] > 100 µM | [10] > 100 µM | [11] > 100 µM | [12] > 100 µM | [13] > 100 µM | [14] > 100 µM | [15] > 100 µM | [16] > 100 µM | [17] > 100 µM | [18] > 100 µM | [19] 34.8 µM | [20] > 100 µM

N#C/C(N)=C(C#N)/N=C/NCc1ccccc1
inactive: [1] > 100 µM | [2] > 100 µM | [3] > 100 µM | [4] > 100 µM | [5] > 100 µM | [6] > 100 µM | [7] > 100 µM | [8] > 100 µM | [9] > 100 µM | [10] > 100 µM | [11] > 100 µM | [12] > 100 µM | [13] > 100 µM | [14] > 100 µM | [15] > 100 µM | [16] 38.4 µM | [17] > 100 µM | [18] > 100 µM | [19] > 100 µM | [20] > 100 µM

COC(=O)c1cc2c(cc1CC(Cc1ccc3c(c1)CCC3)C(=O)OC)CCC2 (stereo not given)
inactive: [1] 45.7 µM | [2] 34.2 µM | [3] 46.1 µM | [4] 40.6 µM | [5] 38 µM | [6] 26.9 µM | [7] 41.3 µM | [8] 63.5 µM | [9] 22.2 µM | [10] > 100 µM | [11] 60.7 µM | [12] > 100 µM | [13] 54.6 µM | [14] 35 µM | [15] 84.1 µM | [16] 44.1 µM | [17] 17.6 µM | [18] > 100 µM | [19] 22.9 µM | [20] 74 µM

COC(=O)[C@@H]1O[C@]12[C@@H](CO[Si](C)(C)C(C)(C)C)O[C@@H](n1cc(C)c(=O)[nH]c1=O)[C@@H]2O[Si](C)(C)C(C)(C)C
inactive: [1] 16.6 µM | [2] 7.96 µM | [3] 23 µM | [4] 3.38 µM | [5] 12.9 µM | [6] 2.84 µM | [7] 21.6 µM | [8] 15.8 µM | [9] 11.9 µM | [10] 14.6 µM | [11] 20.4 µM | [12] 15.3 µM | [13] 15.4 µM | [14] 21.3 µM | [15] 19.8 µM | [16] 15 µM | [17] 19.7 µM | [18] 10.3 µM | [19] 23.1 µM | [20] 11.5 µM

C=C(C)C(=O)[C@@]12C(=O)[C@@H](C)CC[C@H]1[C@H](C)C[C@@H]2C=C(C)C
inactive: [1] 12.9 µM | [2] 29.6 µM | [3] 23.9 µM | [4] 18.7 µM | [5] 24.1 µM | [6] 15.8 µM | [7] 18 µM | [8] 15.4 µM | [9] 14.6 µM | [10] 19.5 µM | [11] 28.4 µM | [12] 30.7 µM | [13] 17.2 µM | [14] 19.9 µM | [15] 34 µM | [16] 13.8 µM | [17] 19.4 µM | [18] 12.6 µM | [19] 34.8 µM | [20] 20.2 µM

COC(=O)N/N=C(/CC1(O)C(=O)Nc2ccc([N+](=O)[O-])cc21)c1ccccc1 (stereo not given)
inactive: [1] 33.3 µM | [2] 40.7 µM | [3] 34.4 µM | [4] 18.9 µM | [5] 39.4 µM | [6] 24.5 µM | [7] 33 µM | [8] 21.3 µM | [9] 43.9 µM | [10] 44.3 µM | [11] > 79.6 µM | [12] 29.4 µM | [13] 45.4 µM | [14] 38 µM | [15] 23.2 µM | [16] 31.2 µM | [17] 23.9 µM | [18] 38.9 µM | [19] 23.9 µM | [20] 37.8 µM

Cc1cc(C)c(S(=O)(=O)N(CCCCN)OCCCN)c(C)c1
inactive: [1] 22.5 µM | [2] 13.9 µM | [3] 19.5 µM | [4] 15.2 µM | [5] 16.4 µM | [6] 11.7 µM | [7] 20.9 µM | [8] 26.9 µM | [9] 16.2 µM | [10] 18.4 µM | [11] 19.5 µM | [12] 17.4 µM | [13] 18.4 µM | [14] 21.8 µM | [15] 18.3 µM | [16] 15.1 µM | [17] 23.7 µM | [18] 19.6 µM | [19] 13.5 µM | [20] 17.9 µM
